Experimental data from patent US11292767B2, “Heterocyclic inhibitors of MCT4” (Vettore, LLC, priority 2016, dated 2022).

Key:
Assay type in all cases: in vitro ADME
[1] = Metabolic stability in mouse liver microsomes (in vitro t1/2); conditions: mouse liver microsomes 0.5 mg/mL, 2 μM compound, % remaining at 60 min
Description: (§1) Metabolic Stability Assays The following are assays that may be used to evaluate the metabolic stability of compounds of Formula (I) in human, rat, or mouse microsomes. The assays follow a common procedure recited below. 1. […] Two separated experiments were performed as follows. a) With NADPH: 10 μL of 20 mg/mL liver microsomes and 40 μL of 10 mM NADPH were added to the incubations. […] The final concentration of microsomes was 0.5 mg/mL. 3. The reaction was started with the addition of 4 μL of 200 μM control compound or test compound solutions. Verapamil was used as positive control in this study. The final concentration of test compound or control compound was 2 μM. 4. Aliquots of 50 μL were taken from the reaction solution at 0, 15, 30, 45 and 60 min. […] Samples were centrifuged at 3,220 g for 40 minutes. A 90 μL aliquot of the supernatant was mixed with 90 μL of ultra-pure H2O and then used for LC-MS/MS analysis. 5. Data analysis. All calculations were carried out using Microsoft Excel. Peak areas were determined from extracted ion chromatograms. The slope value, k, was determined by linear regression of the natural logarithm of the remaining percentage of the parent drug vs. incubation time curve. The in vitro half-life (in vitro t1/2) was determined from the slope value: in vitro t1/2=−(0.693)/k.

[2] = Metabolic stability in human liver microsomes (in vitro t1/2); conditions: human liver microsomes 0.5 mg/mL, 2 μM compound; for Human microsome % 60 min: % remaining at 60 min
Description: as §1

[3] = Metabolic stability in rat liver microsomes (in vitro t1/2); conditions: rat liver microsomes 0.5 mg/mL, 2 μM compound; for Rat microsome % 60 min: % remaining at 60 min
Description: as §1

Compound | Mouse microsome % 60 min [1] [%] | Human microsome % 60 min [2] [%] | Rat microsome % 60 min [3] [%] | Human microsome t1/2, min ([2]; in vitro t1/2) | Rat microsome t1/2, min ([3]; in vitro t1/2)
CC(C)COc1cccc(-c2cc(COC(C)(C)C(=O)O)nn2Cc2ccccc2Cl)c1 [Example 27, 2-([1-[(2-Chlorophenyl)methyl]-5-(3-(2-methylpropoxy)phenyl)1H-pyrazol-3-yl]methoxy)-2-methylpropanoic acid] | 50 | 43 | – | – | –
CC(C)Oc1cccc(-c2cc(COC(C)(C)C(=O)O)nn2Cc2ccccc2Cl)c1 [Example 35, 2-([1-[(2-Chlorophenyl)methyl]-5-(3-isopropoxyphenyl)1H-pyrazol-3-yl]methoxy)-2-methylpropanoic acid] | 31 | 67 | – | – | –
COc1cccc(-c2cc(COC(C)(C)C(=O)O)nn2Cc2ccccc2N(C)C)c1 [Example 38, 2-([1-[[2-(Dimethylamino)phenyl]methyl]-5-(3-methoxyphenyl)1H-pyrazol-3-yl]methoxy)-2-methylpropanoic acid] | 61 | 56 | – | – | –
COc1csc(-c2cc(COC(C)(C)C(=O)O)nn2Cc2ccccc2Cl)c1 [Example 65, 2-([1-[(2-Chlorophenyl)methyl]-5-(4-methoxythien-2-yl)-1H-pyrazol-3-yl]methoxy)-2-methylpropanoic acid] | 92 | 78 | – | – | –
COc1cc(-c2cc(COC(C)(C)C(=O)O)nn2Cc2ccccc2Cl)cs1 [Example 66, 2-([1-[(2-chlorophenyl)methyl]-5-(5-methoxythien-3-yl)-1H-pyrazol-3-yl]methoxy)-2-methylpropanoic acid] | 83 | 73 | – | – | –
CCC(C)(OCc1cc(-c2cccc(OC)c2)n(Cc2ccccc2Cl)n1)C(=O)O (stereo not drawn) [Example 68, 2-([1-[(2-Chlorophenyl)methyl]-5-(3-methoxyphenyl)-1H-pyrazol-3-yl]methoxy)-2-methylbutanoic acid] | 91 | 95 | – | – | –
CC(C)COc1ncc(-c2cc(COC(C)(C)C(=O)O)nn2Cc2ccccc2Cl)s1 [Example 132, 2-([1-[(2-Chlorophenyl)methyl]-5-[2-(2-methylpropoxy)-1,3-thiazol-5-yl]-1H-pyrazol-3-yl]methoxy)-2-methylpropanoic acid] | 64 | 70 | 70 | – | –
COc1cccc(-c2cc(COC(C)(C)C(=O)O)nn2Cc2ccccc2OC(C)C)c1 [Example 140, 2-([5-(3-Methoxyphenyl)-1-[[2-(propan-2-yloxy)phenyl]methyl]-1H-pyrazol-3-yl]methoxy)-2-methylpropanoic acid] | 62 | 67 | 48 | – | –
CC(C)(C)COc1cccc(-c2cc(COC(C)(C)C(=O)O)nn2-c2ccccc2N2CCC2)c1 [Example 155, 2-([1-[2-(Azetidin-1-yl)phenyl]-5-[3-(2,2-dimethylpropoxy)phenyl]-1H-pyrazol-3-yl]methoxy)-2-methylpropanoic acid] | 37 | 62 | 70 | – | –
CCn1ncc2ccc(-c3cc(COC(C)(C)C(=O)O)nn3-c3ccccc3Cl)cc21 [Example 157, 2-([1-(2-chlorophenyl)-5-(1-ethyl-1H-indazol-6-yl)-1H-pyrazol-3-yl]methoxy)-2-methylpropanoic acid] | – | 78 | 97 | – | –
Cn1ncc2cccc(-n3nc(COC(C)(C)C(=O)O)cc3-c3cccc(OC4CCC4)c3)c21 [Example 166, 2-([5-(3-Cyclobutoxyphenyl)-1-(1-methyl-1H-indazol-7-yl)-1H-pyrazol-3-yl]methoxy)-2-methylpropanoic acid] | 82 | 94 | – | – | ∞
CC(C)(OCc1cc(-c2cccc(OC3CC3)c2)n(-c2ccc(F)cc2N2CCC2)n1)C(=O)O [Example 183, 2-([1-[2-(Azetidin-1-yl)-4-fluorophenyl]-5-(3-cyclopropoxyphenyl)-1H-pyrazol-3-yl]methoxy)-2-methylpropanoic acid] | 73 | 66 | 71 | – | –
CCOc1ccccc1Cn1nc(COC(C)(C)C(=O)O)cc1-c1cc(Cl)cc(OC)c1 [Example 196, 2-([5-(3-Chloro-5-methoxyphenyl)-1-[(2-ethoxyphenyl)methyl]-1H-pyrazol-3-yl]methoxy)-2-methylpropanoic acid] | 33 | 62 | 32 | – | –

More lines, main results first:

Mouse microsome % 60 min [1] [%] | Human microsome % 60 min [2] [%] | Rat microsome % 60 min [3] [%] | Human microsome t1/2, min ([2]; in vitro t1/2) | Compound | Rat microsome t1/2, min ([3]; in vitro t1/2)
99 | 85 | – | – | COc1cccc(-c2cc(COC(C)(C)C(=O)O)nn2Cc2ccccc2OC)c1 [Example 36, 2-([5-(3-Methoxyphenyl)-1-[(2-methoxyphenyl)methyl]1H-pyrazol-3-yl]methoxy)-2-methylpropanoic acid] | –
88 | 89 | – | – | CC(C)(OCc1cc(-c2cccc(OC3CC3)c2)n(Cc2ccccc2Cl)n1)C(=O)O [Example 39, 2-([1-[(2-Chlorophenyl)methyl]-5-[3-(cyclopropoxy)phenyl]1H-pyrazol-3-yl]methoxy)-2-methylpropanoic acid] | –
95 | 59 | – | – | COc1cccc(-c2c(C)c(COC(C)(C)C(=O)O)nn2Cc2ccccc2Cl)c1 [Example 54, 2-({1-[(2-Chlorophenyl)methyl]-5-(3-methoxyphenyl)-4-methyl-1H-pyrazol-3-yl}methoxy)-2-methylpropionic acid] | –
84 | 82 | – | – | COc1ccc(-c2cc(COC(C)(C)C(=O)O)nn2Cc2ccccc2Cl)s1 [Example 64, 2-([1-[(2-Chlorophenyl)methyl]-5-(5-methoxythien-2-yl)-1H-pyrazol-3-yl]methoxy)-2-methylpropanoic acid] | –
– | 81 | 44 | – | CC[C@](C)(OCc1cc(-c2cccc(OC)c2)n(Cc2ccccc2Cl)n1)C(=O)O [Example 120, (2S)-2-([1-[(2-chlorophenyl)methyl]-5-(3-methoxyphenyl)-1H-pyrazol-3-yl]methoxy)-2-methylbutanoic Acid] | –
81 | 82 | 61 | – | CC[C@@](C)(OCc1cc(-c2cccc(OC)c2)n(Cc2ccccc2Cl)n1)C(=O)O [Example 121, (2R)-2-([1-[(2-chlorophenyl)methyl]-5-(3-methoxyphenyl)-1H-pyrazol-3-yl]methoxy)-2-methylbutanoic Acid] | –
90 | 97 | 91 | – | CC(C)Oc1ncc(-c2cc(COC(C)(C)C(=O)O)nn2Cc2ccccc2Cl)s1 [Example 133, 2-([1-[(2-Chlorophenyl)methyl]-5-[2-(propan-2-yloxy)-1,3-thiazol-5-yl]-1H-pyrazol-3-yl]methoxy)-2-methylpropanoic acid] | –
72 | 80 | 85 | – | CC(C)Cc1ncc(-c2cc(COC(C)(C)C(=O)O)nn2Cc2ccccc2Cl)o1 [Example 134, 2-([1-[(2-Chlorophenyl)methyl]-5-[2-(2-methylpropyl)-1,3-oxazol-5-yl]-1H-pyrazol-3-yl]methoxy)-2-methylpropanoic acid] | –
81 | 78 | 81 | – | Cn1ncc2cccc(-n3nc(COC(C)(C)C(=O)O)cc3-c3cccc(OCC4CCC4)c3)c21 [Example 168, 2-([5-[3-(cyclobutylmethoxy)phenyl]-1-(1-methyl-1H-indazol-7-yl)-1H-pyrazol-3-yl]methoxy)-2-methylpropanoic acid] | –
87 | 75 | 90 | – | CC(C)(C)COc1cccc(-c2cc(COC(C)(C)C(=O)O)nn2-c2ccccc2Cl)c1 [Example 177, 2-([1-(2-chlorophenyl)-5-[3-(2,2-dimethylpropoxy)phenyl]-1H-pyrazol-3-yl]methoxy)-2-methylpropanoic acid] | –
70 | 66 | 72 | – | CC(C)(OCc1cc(-c2cccc(OCC3CCC3)c2)n(-c2ccccc2Cl)n1)C(=O)O [Example 178, 2-([1-(2-Chlorophenyl)-5-[3-(Cyclobutylmethoxy)phenyl]-1H-pyrazol-3-yl]methoxy)-2-methylpropanoic acid] | –
92 | – | 87 | ∞ | Cc1ccccc1-n1nc(COC(C)(C)C(=O)O)cc1-c1cccc(OC2CC2)c1 [Example 188, 2-([5-(3-Cyclopropoxyphenyl)-1-(2-methylphenyl)-1H-pyrazol-3-yl]-methoxy)-2-methylpropanoic acid] | –
